Measurements taken from US20090270395A1, “EP4 Receptor Agonist, Compositions and Methods Thereof” (priority 2005, published 2009).

Assays:
[1] = ocular tolerability in cynomolgus monkeys; type: in vivo; conditions: compared to compounds disclosed in WO 2004/085430 (Example 2)
[2] = ocular tolerability in rabbits, topical ophthalmic solution; type: in vivo, rabbits (New Zealand white rabbits)
Experimental: Drug concentrations are expressed in terms of the active ingredient (base). The compounds of this invention are dissolved in a suitable ophthalmic solution (e.g., 0.5% Polysorbate-80, 0.02% benzalkonium chloride, 0.1% EDTA, 4.5% mannitol in 5 mM citrate) at 22, 2.2 and 0.22 μM for rabbit study and 111, 33, 11, and 1.1 μM for monkey studies. Drug or vehicle aliquots (25 ul) are administered topically unilaterally or bilaterally. In unilateral applications, the contralateral eyes receive an equal volume of vehicle. Proparacaine (0.5%) is applied to the cornea prior to tonometry to minimize discomfort. Intraocular pressure (IOP) is recorded using a pneumatic tonometer (Alcon Applanation Pneumatonograph) or equivalent.

EP4 mRNA in bone tissue = test: EP4 mRNA levels in bone tissue of rats after systemic injection (Northern blot); type: in vivo, rat; conditions: five-week-old male rats; 3-6 mg/Kg injected
Text: For mRNA localization experiments, 5-week old Sprague-Dawley rats (Charles River) are euthanized by CO2, their tibiae and calvariae are excised, cleaned of soft tissues and frozen immediately in liquid nitrogen. […] Animals are euthanized at several time points post-injection and their tibiae and calvariae, as well as samples from lung and kidney tissues are frozen in liquid nitrogen.
(§1) Total RNA is extracted from the tibial metaphysis or diaphysis and calvaria using a guanidinium isothiocyanate-phenol-chloroform method after pulverizing frozen bone samples by a tissue homogenizer. See P. Chomczynski et al., Single-step method of RNA isolation by acid guanidium thiocyanate-phenol-chloroform extraction., Analyt Biochem, 162, 156-159 (1987), which is incorporated by reference herein in its entirety. RNA samples ([…]) are separated on 0.9% agarose/formaldehyde gels and transferred onto nylon membranes (Boehringer Mannheim, Germany). Membranes are prehybridized in Hybrisol I (Oncor, Gaithersburg, Md.) and 0.5 mg/ml sonicated salmon sperm DNA (Boehringer) at 42° C. for 3 hours and are hybridized at 42° C. with rat EP2 and mouse EP4 cDNA probes labeled with [^32P]-dCTP (Amersham, Buckinghamshire, UK) by random priming using the rediprime kit (Amersham). […]

RCT-3 cells = test: effect on intracellular cAMP in RCT-3 cells; type: cell-based, rat
Experimental: (§2) RCT-1 and RCT-3 are clonal cell lines immortalized by SV-40 large T antigen from cells released from fetal rat calvair by a combination collagenase/hyaluronidase digestion. RCT-1 cells, derived from cells released during the first 10 minutes of digestion (fraction I), are cultured in RPMI 1640 medium (BRL) with 10% fetal bovine serum and 0.4 mg/ml G418 (BRL). These cells differentiate and express osteoblastic features upon retinoic acid treatment. RCT-3 cells, immortalized from osteoblast-enriched fraction III cells, are cultured in F-12 medium (BRL) with 5% Fetal bovine serum and 0.4 mg/ml G418. TRAB-11 cells are also immortalized by SV40 large T antigen from adult rat tibia and are cultured in RPMI 1640 medium with 10% FBS and 0.4 mg/ml G418. ROS 17/2.8 rat osteosarcoma cells are cultured in F-12 containing 5% FBS. Osteoblast-enriched (fraction III) primary fetal rat calvaria cells are obtained by collagenase/hyaluronidase digestion of calvariae of 19 day-old rat fetuses. See Rodan et al., Growth stimulation of rat calvaria osteoblastic cells by acidic FGF, Endocrinology, 121, 1919-1923 (1987), which is incorporated by reference herein in its entirety. Cells are released during 30-50 minutes digestion (fraction […]) and are cultured in F-12 medium containing 5% FBS. […]

[3] = test system: EP4 expression in bone marrow cells; test: localization of EP4 mRNA expression in bone tissue by in situ hybridization; type: in vivo, rat; conditions: rats, single anabolic dose
Experimental: (§3) For mRNA localization experiments, 5-week old Sprague-Dawley rats (Charles River) are euthanized by CO2, their tibiae and calvariae are excised, cleaned of soft tissues and frozen immediately in liquid nitrogen. For EP4 regulation experiments, 6-week old rats are given a single injection of either vehicle (7% ethanol in sterile water) or an anabolic dose of PGE2 (Cayman Chemical, Ann Arbor, Mich.), 3-6 mg/kg in the same vehicle) intraperitoneally. Animals are euthanized at several time points post-injection and their tibiae and calvariae, as well as samples from lung and kidney tissues are frozen in liquid nitrogen.
Frozen tibiae are sectioned coronally at […] thickness and sections are mounted on charged slides (Probe On Plus, Fisher Scientific, Springfield, N.J.) and are kept at −70° C. until hybridization. cRNA probes are labeled with ^35S-UTPgS (ICN, Costa Mesa, Calif.) using a Riboprobe II kit (Promega Madison, Wis.). Hybridization is performed overnight at 50° C. […]
In situ hybridization is used in order to localize cells expressing EP4 in bone. In control experiment (vehicle-injected) rats, low expression of EP4 is detected in bone marrow cells. […]

[4] = test system: ROS 17/2.8 rat osteosarcoma cells; test: effect on intracellular cAMP in ROS 17/2.8 cells; type: cell-based
Experimental: as §2

[5] = test system: EP4 mRNA in RP-1 periosteal cells; test: EP4 mRNA expression (Northern blot) in RP-1 periosteal cells; type: cell-based, rat; conditions: 10^−6 M
Experimental: (§4) RP-1 periosteal cells are spontaneously immortalized from primary cultures of periosteal cells from tibae of 4-week old Sprague-Dawley rats and are cultured in DMEM (BRL, Gaithersburg, Md.) with 10% fetal bovine serum (JRH Biosciences, Lenexa, Kans.).
as §1, with “(Amersham). After hybridization, membranes are washed 4 times in 2×SSC+0.1% SDS at room temperature for a total of 1 hour and once with 0.2×SSC+0.1% SDS at 55° C. for 1 hour and then exposed to Kodak XAR 2 film at −70° C. using intensifying screens.” for “(Amersham).”

EP4 mRNA in RCT-3 cells = test: EP4 mRNA expression (Northern blot) in RCT-3 cells; type: cell-based, rat
Experimental: as §2

EP2 mRNA in RP-1 cells = test: EP2 mRNA expression (Northern blot) in RP-1 cells; type: cell-based, rat
Experimental: as §4
as §1, with “(Amersham). After hybridization, membranes are washed 4 times in 2×SSC+0.1% SDS at room temperature for a total of 1 hour and once with 0.2×SSC+0.1% SDS at 55° C. for 1 hour and then exposed to Kodak XAR 2 film at −70° C. using intensifying screens.” for “(Amersham).”

EP2 mRNA in bone tissue = EP2 mRNA in bone tissue of rats after systemic injection (Northern blot); type: in vivo, rat; conditions: 3-6 mg/Kg injected
Experimental: as §3
Total RNA is extracted from the tibial metaphysis or diaphysis and calvaria using a guanidinium isothiocyanate-phenol-chloroform method after pulverizing frozen bone samples by a tissue homogenizer. See P. Chomczynski et al., Single-step method of RNA isolation by acid guanidium thiocyanate-phenol-chloroform extraction., Analyt Biochem, 162, 156-159 (1987), which is incorporated by reference herein in its entirety. RNA samples ([…]) are separated on 0.9% agarose/formaldehyde gels and transferred onto nylon membranes (Boehringer Mannheim, Germany). […]

TRAB-11 cells = test: effect on intracellular cAMP in TRAB-11 cells; type: cell-based, rat
Experimental: as §2

CC(C)OC(=O)c1ccc(CCN2C(=O)OCC[C@@H]2/C=C/[C@@H](O)C(F)(F)c2cccc(Br)c2)cc1 [Example 1, isopropyl 4-(2-{(4R)-4-[(1E,3R)-4-(3-bromophenyl)-4,4-difluoro-3-hydroxybut-1-en-1-yl]-2-oxo-1,3-oxazinan-3-yl}ethyl)benzoate]
ocular tolerability [1]: improved ocular tolerability | ocular tolerability ([2]; rabbits, compared to compounds disclosed in WO 2004/085430 (Example 2)): improved ocular tolerability

CC(C)OC(=O)c1ccc(CCN2C(=O)OCC[C@@H]2CC[C@@H](O)C(F)(F)c2cccc(Br)c2)cc1 [Example 3, isopropyl 4-(2-{(4S)-4-[(3R)-4-(3-bromophenyl)-4,4-difluoro-3-hydroxybutyl]-2-oxo-1,3-oxazinan-3-yl}ethyl)benzoate]
drug treatment related ocular adverse effects (eye closure) ([2]; New Zealand white rabbits, single dose, topical, unilateral, 2.2 μM (25 μL) ophthalmic solution, vehicle panel-controlled): very slight drug treatment related ocular adverse effects (eye closure)

CCCCC[C@H](O)/C=C/[C@H]1[C@H](O)CC(=O)[C@@H]1C/C=C\CCCC(=O)O [PGE2]
effect on EP4 mRNA levels in the tibial diaphysis (EP4 mRNA in bone tissue): rapidly increased EP4 mRNA levels | time of peak EP4 mRNA levels in the tibial diaphysis after injection (EP4 mRNA in bone tissue): 2 h | effect on intracellular cAMP (RCT-3 cells): markedly induced | expression of EP4 in bone marrow cells [3]: increased the expression of EP4 in bone marrow cells | effect on intracellular cAMP [4]: no effect | effect on EP4 mRNA levels [5]: rapidly increases EP4 mRNA levels | time of peak EP4 mRNA levels after treatment [5]: 2 h | effect on EP4 mRNA levels (EP4 mRNA in RCT-3 cells): no effect | EP2 mRNA expression before or after treatment (EP2 mRNA in RP-1 cells): not expressed | induction of EP2 mRNA in bone tissue (EP2 mRNA in bone tissue): does not induce EP2 mRNA | effect on intracellular cAMP (TRAB-11 cells): markedly induced
